Values quoted from earlier work in patent publication US7795435B2, “Process for obtaining the polymorphic form I of finasteride” (Ragactives, S.L., priority 2002, dated 2010).

Settings: 25° C., according to EP 0 599 376 B1

For `CC(C)(C)NC(=O)[C@H]1CC[C@H]2[C@@H]3CC[C@H]4NC(=O)C=C[C@]4(C)[C@H]3CC[C@]12C` [Form I of finasteride], the solubility in cyclohexane is given as 0.27 ± 0.05 mg/g and the solubility in water is given as 0.05 ± 0.02 mg/g.

In the case of `CC(C)(C)NC(=O)[C@H]1CC[C@H]2[C@@H]3CC[C@H]4NC(=O)C=C[C@]4(C)[C@H]3CC[C@]12C` [Form II of finasteride], the solubility in cyclohexane is listed as 0.42 ± 0.05 mg/g and the solubility in water is listed as 0.16 ± 0.02 mg/g.
